# pIC50: −log10 of the molar value.
# Target: T1, Neutral cholesterol ester hydrolase 1 (NCEH1) (Homo sapiens, UniProt Q6PIU2)
# T1 construct: endogenous full-length enzyme in live PC3 cells
# T1 sequence (Q6PIU2 1-408): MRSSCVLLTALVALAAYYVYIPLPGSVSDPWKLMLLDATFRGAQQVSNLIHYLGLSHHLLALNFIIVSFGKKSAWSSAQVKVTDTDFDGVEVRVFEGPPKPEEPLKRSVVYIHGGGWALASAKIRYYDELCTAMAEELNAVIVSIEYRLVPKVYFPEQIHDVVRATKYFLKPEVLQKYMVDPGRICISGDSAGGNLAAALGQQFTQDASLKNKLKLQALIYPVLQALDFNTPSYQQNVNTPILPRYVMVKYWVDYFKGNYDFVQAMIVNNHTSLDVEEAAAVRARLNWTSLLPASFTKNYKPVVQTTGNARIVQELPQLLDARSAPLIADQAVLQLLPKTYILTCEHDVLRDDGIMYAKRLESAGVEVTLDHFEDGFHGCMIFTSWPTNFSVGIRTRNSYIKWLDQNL
# Experiment: competitive activity-dependent proximity ligation (FP-Bio probe) in live cells; gel-based ABPP in SKOV3
# Assay type: cell-based
smiles,measurement,value
CC(C)c1ccccc1OC(=O)NCCc1ccc2ccccc2c1 [JW480],pIC50,8.22
